Test results published in the supplement of paper PMC10307832.

How the values were obtained:
Experiment in all cases: relative viability (nuclei count vs DMSO), 5 days (fraction); higher = more cells survive
[1] = compound: CC(C)(C)c1nc(-c2cccc(NS(=O)(=O)c3c(F)cccc3F)c2F)c(-c2ccnc(N)n2)s1 [Dabrafenib] + CS(=O)(=O)N1CCN(Cc2cc3nc(-c4cccc5[nH]ncc45)nc(N4CCOCC4)c3s2)CC1 [Pictilisib] (partner 1 µM)
Summary of the method: (§1)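 Cells from lung cancer lines were seeded into 1536-well plates and, one day later, dosed by pin tool. Treatments were either a single drug or a fixed dose of an anchor drug with five library-drug doses (not always all listed) in √10 steps. After 5 days, nuclei were stained in a one-step fixation (final 0.05% Triton X-100, 1% formaldehyde, 1 ug/ml Hoechst) and counted on 4× images, and relative viability is the treated-to-vehicle nuclei ratio, as the median of duplicate plates.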

[2] = compound: CC(C)(C)c1nc(-c2cccc(NS(=O)(=O)c3c(F)cccc3F)c2F)c(-c2ccnc(N)n2)s1 [Dabrafenib] + Nc1ncn([C@H]2C[C@H](O)[C@@H](CO)O2)c(=O)n1 [Decitabine] (partner 2 µM)
Summary of the method: as §1

[3] = compound: NC(=O)c1ccc(N(C(N)=O)c2c(F)cccc2F)nc1-c1ccc(F)cc1F [VX-702] + CC(=O)Nc1cccc(-n2c(=O)n(C3CC3)c(=O)c3c(Nc4ccc(I)cc4F)n(C)c(=O)c(C)c32)c1 [Trametinib] (partner 0.02 µM)
Summary of the method: as §1

[4] = compound: NC(=O)c1ccc(N(C(N)=O)c2c(F)cccc2F)nc1-c1ccc(F)cc1F [VX-702] + NC(=O)Nc1cc(-c2cccc(F)c2)sc1C(=O)N[C@H]1CCCNC1 [AZD7762] (partner 0.2 µM)
Summary of the method: as §1

Cell Line	relative viability ([1]; first compound 0.009487 µM)	relative viability ([1]; first compound 0.03 µM)	relative viability ([1]; first compound 0.09487 µM)	relative viability ([1]; first compound 0.3 µM)	relative viability ([2]; first compound 0.009487 µM)	relative viability ([2]; first compound 0.03 µM)	relative viability ([2]; first compound 0.09487 µM)	relative viability ([2]; first compound 0.3 µM)	relative viability ([3]; first compound 0.02 µM)	relative viability ([3]; first compound 0.2 µM)	relative viability ([3]; first compound 0.6325 µM)	relative viability ([3]; first compound 2 µM)	relative viability ([4]; first compound 0.02 µM)	relative viability ([4]; first compound 0.2 µM)	relative viability ([4]; first compound 0.6325 µM)	relative viability ([4]; first compound 2 µM)	relative viability ([2]; first compound 0.003 µM)	relative viability ([1]; first compound 0.003 µM)
NCI-H23	0.465	0.461	0.455	0.503	0.343	0.352	0.333	0.32	0.4	0.411	0.392	0.413	0.294	0.35	0.305	0.208	–	–
NCI-H322M	0.539	–	0.542	0.489	0.72	–	0.656	0.737	0.543	0.499	0.518	0.613	0.544	0.558	0.537	0.499	–	–
NCI-H358	0.307	0.339	0.405	0.282	0.198	0.186	0.195	0.152	0.147	0.143	0.126	0.143	0.542	0.461	0.45	0.572	0.198	–
NCI-H441	0.54	0.406	0.374	0.401	0.253	0.279	0.247	0.203	0.349	0.386	0.351	0.538	1.25	1.08	1.13	1.02	–	–
NCI-H460	0.352	0.245	0.653	0.553	0.486	0.457	0.463	0.129	0.209	0.172	0.166	0.0854	0.732	0.585	0.721	0.638	0.588	0.194
NCI-H596	0.364	0.194	0.397	0.423	1.1	0.821	1.02	0.88	0.908	0.832	0.835	0.886	1.1	1.03	1.12	1.09	–	0.372
NCI-H647	0.347	–	0.531	0.388	0.366	0.308	0.358	0.234	0.555	0.571	0.497	0.678	0.461	0.386	0.494	0.567	0.445	–
NCI-H650	0.977	0.878	0.688	0.661	0.324	0.33	0.303	0.251	0.92	0.978	1.1	1.08	0.943	0.894	0.936	1.16	–	–
NCI-H727	0.476	0.36	0.444	0.401	0.8	–	0.877	0.818	0.387	0.381	0.382	0.359	0.436	0.526	0.502	0.574	0.53	–
NCI-H838	0.563	0.421	0.447	0.385	0.466	0.497	0.428	0.335	0.535	0.521	0.525	0.6	0.937	0.912	1.05	0.903	0.436	0.394
NCI-H1355	0.493	0.328	–	0.362	0.331	0.381	0.37	0.317	0.464	0.38	0.368	0.416	0.867	0.672	0.83	0.813	–	–
NCI-H1395	0.652	0.673	0.542	0.567	0.726	0.738	0.696	0.66	1.06	1.11	1.09	1.24	0.419	0.427	0.411	0.408	–	–
NCI-H1437	0.478	0.481	0.46	0.702	0.55	0.626	0.513	0.43	0.519	0.447	0.464	0.497	1.06	1.16	1.23	1.16	0.582	0.385
NCI-H1651	0.58	0.559	0.554	0.596	0.679	0.618	0.512	0.243	0.747	0.822	0.819	0.884	0.474	0.429	0.468	0.455	0.603	0.534
NCI-H1666	–	0.474	0.387	0.448	0.813	0.789	0.674	0.751	0.89	0.819	0.883	0.739	0.925	0.837	0.922	0.693	0.69	0.473
NCI-H1734	0.522	0.38	0.424	0.399	0.456	0.471	0.488	0.337	0.734	0.683	0.544	0.68	0.561	0.448	0.521	0.465	–	–
NCI-H1755	0.414	0.237	0.418	0.342	0.706	0.667	0.722	0.583	0.841	0.799	0.838	0.869	0.456	0.442	0.447	0.367	0.654	0.444
